Test results as given in patent publication US20240165196A1, “Beta-Lactamase Inhibitors” (VIB VZW, priority 2021, published 2024).

Key:
[1] = tested on: 16 additional E. coli clinical isolates containing TEM or SHV enzymes; assay: MIC of ampicillin with fixed 30 μg/ml TEM3.2, isolate panel summary; format: cell-based; conditions: 14 out of 16 isolates
Description: Moreover, the core sequence of peptide TEM3.0 also occurs in the structurally related SHV β-lactamase (FIG. 2E). Although the C-terminal extension residues H and N have been replaced with physicochemically similar R and Q, respectively (FIG. 2H). […] To quantify the synergy between these four peptides and penicillin G, we performed a so-called checkerboard assay, which allows to compare the activity of two test compounds co-incubated (here peptide and a beta-lactam antibiotic), to their individual activities in isolation. The result from the assay is quantified as the Fractional Inhibitory Concentration Index (FICI), and it is generally accepted that values below 0.5 indicate synergistic effects between the compounds. […] We evaluated the synergy of the peptides with penicillin G in clinical E. coli isolates carrying the TEM (FIG. 2I) or SHV enzymes (FIG. 2J). […]
Determination of MIC values using the broth microdilution in the 96-well plate (BD Biosciences, Belgium) according to the EUCAST guideline, which was performed in 96-well polystyrene flat bottom microtiter plates (BD Biosciences). […] OD was measured at 590 nm a multipurpose ultraviolet-visible plate reader, and the absorbance of the growth bacteria was measured using absorbance reader. Bacterial growth was also visually inspected and agreed well with the OD reading.

[2] = tested on: E. coli clinical isolate, β-lactamase TEM-ESBL; CTX-M-27; assay: MIC of ampicillin without/with 30 μg/mL TEM3.2, clinical isolates; format: cell-based; conditions: isolate 2017 Romania, UTI, Urine
Description: (§1) Moreover, the core sequence of peptide TEM3.0 also occurs in the structurally related SHV β-lactamase (FIG. 2E). Although the C-terminal extension residues H and N have been replaced with physicochemically similar R and Q, respectively (FIG. 2H). […] To quantify the synergy between these four peptides and penicillin G, we performed a so-called checkerboard assay, which allows to compare the activity of two test compounds co-incubated (here peptide and a beta-lactam antibiotic), to their individual activities in isolation. The result from the assay is quantified as the Fractional Inhibitory Concentration Index (FICI), and it is generally accepted that values below 0.5 indicate synergistic effects between the compounds. As a control, we generated a peptide using the same design, but based on a previously identified APR from the β-galactosidase enzyme (BGAL)^16 from E. coli (APR=SVIIWSL, peptide sequence=[…]) that has a MIC value>100 μg/mL on E. coli strain UZ_TEM104. We evaluated the synergy of the peptides with penicillin G in clinical E. coli isolates carrying the TEM (FIG. 2I) or SHV enzymes (FIG. 2J). […] As a further control, we also performed a checkerboard assay with an E. coli strain that was resistant to the aminoglycoside kanamycin and observed no synergy between this unrelated antibiotic and our peptides (FIG. 2L), in line with the notion that we are inhibiting a beta-lactamase but not the aminoglycoside degrading enzyme. […] The list of strains included some that harbored only TEM or SHV, but others contained additional Ambler Class A (CTX-M or OXA) or Class B (VIM and NDM) beta-lactamases. […] In contrast, the presence of the NDM-type […], that does have a high affinity for Ampicillin and that is completely distinct in sequence and structure from TEM and SHV, seemed to completely prevent the effect of the peptide on the beta-lactam sensitivity of the strains in which it occurred (see also further). As it appeared that TEM3.2 had activity in most isolates tested, we decided to focus further analysis on this peptide. Furthermore, we tested the performance of the TEM3.2 peptide in a checkerboard assay on strains carrying ESBL mutants of TEM, i.e. extended-spectrum mutations that cluster around the active site of the enzyme, and not in the aggregation prone region targeted by the peptide, and as expected from our mode of action, we observed synergy with ampicillin on these strains (FIG. 2M).
(§2) Determination of MIC values using the broth microdilution in the 96-well plate (BD Biosciences, Belgium) according to the EUCAST guideline, which was performed in 96-well polystyrene flat bottom microtiter plates (BD Biosciences). Briefly, a single colony was inoculated into 5 mL Difco™ Mueller Hinton Broth (BD Biosciences Ref 275730) and grown to the end-exponential growth phase in a shaking incubator at 37° C. Cultures were subsequently diluted to an MacFarland (0.5 optical density) then the culture was diluted to reach 10^6 CFU/mL in fresh MHB medium. 50 μl of different concentration of peptides ranging from 128 to 2 μg/mL were serially diluted to the sterile 96-well plate in MHB. 50 μL of the diluted bacteria in MHB were pipetted into 96-well plates to reach the final volume of 100 μL. The bacteria grown with the maximum concentration of carrier and medium were considered as positive and negative controls, respectively. The plates were statically incubated overnight at 37° C. to allow bacterial growth. OD was measured at 590 nm a multipurpose ultraviolet-visible plate reader, and the absorbance of the growth bacteria was measured using absorbance reader. Bacterial growth was also visually inspected and agreed well with the OD reading.

[3] = tested on: E. coli clinical isolate, β-lactamase SHV-12; TEM-ESBL; assay: as above; format: cell-based; conditions: isolate 2017 Germany, RTI, Bronchi
Description: as §1, §2

[4] = tested on: E. coli clinical isolate, β-lactamase TEM-ESBL; CTX-M-TYPE; assay: as above; format: cell-based; conditions: isolate 2017 France, IAI, Peritoneal Fluid
Description: as §1, §2

[5] = tested on: E. coli clinical isolate, β-lactamase TEM-1; assay: as above; format: cell-based; conditions: isolates year NA, country NA
Description: as §1, §2

[6] = tested on: E. coli clinical isolate, β-lactamase TEM-ESBL; assay: as above; format: cell-based
Description: as §1, §2

[7] = tested on: E. coli clinical isolate, β-lactamase TEM-ESBL; CTX-M-15; NDM-5; assay: as above; format: cell-based; conditions: isolate 2017 Qatar, UTI, Urine
Description: as §1, §2

[8] = tested on: E. coli clinical isolate, β-lactamase TEM-ESBL; CTX-M-15; NDM-19; assay: as above; format: cell-based; conditions: isolate 2017 Qatar, IAI, Abscess
Description: as §1, §2

[9] = tested on: E. coli clinical isolate, β-lactamase TEM-ESBL; CTX-M-24; OXA-48; assay: as above; format: cell-based; conditions: isolate 2017 Turkey, IAI, Abscess
Description: as §1, §2

[10] = tested on: E. coli clinical isolate, β-lactamase SHV-2; CTX-M-55; VIM-1; assay: as above; format: cell-based; conditions: isolate 2017 Turkey, UTI, Urine
Description: as §1, §2

SH-SY5Y = format: cell-based, human
E. coli strain UZ_TEM104 [11] = format: cell-based; conditions: peptide alone
Text: In order to generate a synthetic amyloid peptide capable of inactivating the TEM-1 beta-lactamase enzyme by capitalizing on its aggregation propensity, we applied a previously developed design pattern for synthetic aggregating sequences. This involves a tandem repeat of the APR, each instance flanked by charged amino acids for solubility and separated by a short peptide linker^19,20,23 (FIG. 2G). Previous work has shown that good bacterial uptake can be achieved using one positively charged arginine residue on the N-terminal side of each APR in the tandem and two arginine residues on the C-terminal side. This has the additional benefit of reducing the self-aggregation of the peptides and increasing their solubility prior to target engagement. As before, we employed a single Pro residue as a linker between the APRs and focused on an APR length of seven, extending shorter APRs to this length by incorporating flanking amino acids unless they were obvious aggregation breakers (Arg, Lys, Asp, Glu or Pro, see Table 1). We obtained these peptides from solid phase synthesis, followed by HPLC purification to a purity judged by reverse phase chromatography of at least 90% (Genscript).
as §2

E. coli strain UZ_TEM104 [12] = format: cell-based

Row | Substance | clinical isolates sensitized to ampicillin [1] [%] | MIC ampicillin + 30 μg/mL TEM-3.2 [2] | MIC ampicillin + 30 μg/mL TEM-3.2 [3] | MIC ampicillin + 30 μg/mL TEM-3.2 [4] | MIC ampicillin + 30 μg/mL TEM-3.2 [5] | MIC ampicillin + 30 μg/mL TEM-3.2 ([6]; isolate 2016 Germany, UTI, Urine) | MIC ampicillin + 30 μg/mL TEM-3.2 ([6]; isolate 2016 Lithuania, UTI, Urine) | MIC ampicillin + 30 μg/mL TEM-3.2 ([6]; isolate 2017 Israel, UTI, Urine) | MIC ampicillin + 30 μg/mL TEM-3.2 ([6]; isolate 2017 Portugal, RTI, Bronchi) | MIC ampicillin + 30 μg/mL TEM-3.2 ([6]; isolates 2016 South Africa, IAI, Peritoneal Fluid) | MIC ampicillin + 30 μg/mL TEM-3.2 [7] | MIC ampicillin + 30 μg/mL TEM-3.2 [8] | MIC ampicillin + 30 μg/mL TEM-3.2 [9] | MIC ampicillin + 30 μg/mL TEM-3.2 [10] | cytotoxicity (Cell Titer Blue) (SH-SY5Y) | MIC peptide (E. coli strain UZ_TEM104 [11]) [µg/mL] | reduction of the MIC of penicillin G (E. coli strain UZ_TEM104 [12]; additive at fixed 50 μg/mL) [fold] | MIC penicillin (E. coli strain UZ_TEM104 [12]; in presence of additive at 50 μg/mL) [µg/mL]
1 | Ac-RLTAFLHNRRPRLTAFLRQRR-NH2 [TEM3.2] | 87 | ≤0.06 | 0.12 | ≤0.06 | ≤0.06 | ≤0.06 | 1 | ≤0.06 | 0.5 | ≤0.06 | >64 | >64 | ≤0.06 | ≤0.06 | not cytotoxic |  |  | 
2 | Ac-RLTAFLHNRRPRLTAFLHNRR-NH2 [TEM3.0] |  |  |  |  |  |  |  |  |  |  |  |  |  |  |  | >100 | 8 | 200
